In data set [1] the test system is homozygous toxic-milk mouse model (TX model). The class given is in vivo. Particulars: TX mice. From the text:
The selected drug-candidate TDMQ20 has been evaluated on the homozygous toxic-milk mouse model (TX model), a regular murine model of Wilson disease, suitable for evaluation of drug-candidates (for a review, see E. Reed et al., J. Neurochem., 146, 356-373, 2018). TX mice are bearing a naturally occurring point mutation on ATP7B resulting in a methionine changed for a valine, that causes the loss of copper transportation by this protein. C57BL/6 mice have no mutation on ATP7B and were used as control mice in the evaluation of TDMQ20. TX mice were provided by Sun Yat-Sen University (Guangzhou) and C57BL/6 mice by the Guangdong experimental animal center (Guangzhou) and all experiments were performed according to protocols approved by the Welfare Laboratory Animals Committee of the Guangdong University of Technology (approval n° GDUTXS2022083 dated on 3 Aug. 2022), in the framework of the 3 Rs principle.
[…] TX mice (WD) and 8-week-old C57BL/6 mice (Control) were used. TX mice (as WD, TDMQ-L, TDMQ-M, TDMQ-H groups, respectively) received the drug TDMQ20 by intragastric gavage twice a day for 14 consecutive days (at 0, 12.5, 25.0, 50.0 mg/kg in NaCl 0.9%). On the same schedule, C57BL/6 mice (as control group) received NaCl 0.9%. Treatment of WD mice with DPA (200 mg/kg) was used as comparison (DPA group). Six groups of 6 mice were used.
At the end of the treatment period, mice (10-week old) were placed in metabolic cages for 12 h in order to collect urine and feces. At the end of this 12 h-period, mice were anesthetized using 2.5% Avertin diluted in 0.9% NaCl at a dose of […] body weight and sacrificed. Cardiac blood was collected and left at room temperature for 30 minutes before centrifugation at 4° C. at 3000 r/min for 10 minutes to obtain serum samples. During this 30-min period, liver, kidney, brain and serum were also collected. Copper concentrations in urine and feces, serum, liver, kidney and brain were determined by inductively coupled plasma mass spectrometry (ICP-MS). Data analysis was carried out using SPSS Statistics software (version 26). Data are provided as mean values±standard error of the mean (SEM). Statistical analyses were performed using one-way ANOVA for liver, feces and urine, and by non-parametric test for serum, kidney, and brain. Differences with p>0.05 were considered as no significance (ns), * p<0.05, ** p<0.01, and *** p<0.001, n=6. Graph presentations were drawn with Prism GraphPad 8.0.2.

The conditions of data set [2]: oral administration in adults, WD treatment; cited from earlier work.
Setting [3] is: DPA 200 mg/kg/day gavage 14 days, mean of 6 mice ± SEM.

Structures are written as SMILES. Where “and” joins values, the source holds several entries; their conditions need not be identical. Equal values may be shown once.

As to `CC(C)(S)[C@@H](N)C(=O)O` [DPA, D-penicillamine, reference compound], the “copper concentration in serum versus untreated WD mice” value in data set [1] (DPA 200 mg/kg/day) is reported as “not significantly higher”. In addition, in data set [1] (setting [3]), the “Cu content Brain” value stood at 3.7 ± 0.3 mg/kg; the “Cu content Feces” value was 96 ± 7 mg/kg; the “Cu content Kidney” value is listed as 5.4 ± 0.3 mg/kg; the “Cu content Liver” value is 265 mg/kg and 265 ± 9 mg/kg. In data set [1] (setting [3]), the “Cu content Serum” value is given as 0.39 ± 0.03 mg/L and the “Cu content Urine” value turned out to be 2.8 ± 0.2 mg/L. Also, the “adverse effects observed with time” value in data set [2] is “nephrotoxicity, aplasia, retinitis and neurological deterioration”.
In the case of `NCCNCCNCCN` [trientine, triethylene-tetramine], in data set [2], the “adverse effects observed with time” value was “bone marrow depression, anemia, skin rash and hemorrhagic gastritis”.

The record behind these values is patent US20250127772A1, “SPECIFIC TETRADENTATE COPPER CHELATORS FOR THE TREATMENT OF WILSON'S DISEASE” (GUANGDONG UNIVERSITY OF TECHNOLOGY, priority 2023, published 2025).
